Consider 27 compounds from US20250230140A1 (Viva Star Biosciences (Suzhou) Co., Ltd., priority 2021, published 2025).

Bounds are passed on as bounds.

The target of this assay is T1, LPA1 (Homo sapiens, UniProt Q92633).
T1 construct: ProLink (β-galactosidase enzyme-donor fragment); host or cells: CHO-K1 (PathHunter EDG2 β-Arrestin cell line)
The assay can be described thus: LPA1 calcium flux assay (LPA1 functional antagonist assay). It counts as cell-based. The following applies: PathHunter CHO-K1 EDG2 β-Arrestin cells, calcium indicator dye, stimulated with EC80 concentration of LPA, FLIPR. On the procedure:
The effectiveness of compounds of the present invention as LPA1 inhibitors can be determined in an LPA1 functional antagonist assay as follows.
PathHunter® CHO-K1 EDG2 β-Arrestin Cell Line (Eurofins DiscoverX Corporation, Cat #93-0644C2) were plated overnight (11,500 cells/well) in poly-D-lysine coated 384-well microplates (Corning, Cat #356697) in AssayComplete™ Cell Plating 35 Reagent (Eurofins DiscoverX Corporation, Cat #93-0563R35). Following overnight culture, cells were loaded with calcium indicator dye from the HitHunter Calcium No WashPLUS Assay kit (Eurofins DiscoverX Corporation, Cat #93-0091) for 45 minutes at 37° C. Test compounds solubilized in DMSO (Sigma, Cat #276855) on 384-well polypropylene microplates (Greiner bio-one, Cat #781280) were then diluted to intermediate concentration with assay buffer [1×HBSS calcium/magnesium (Corning, Cat #21-023-CM) and 20 mM HEPES (Corning, Cat #25-060-Cl)] before addition to cells by Agilent Velocity 11 with a final concentration of 0.4% DMSO. After compound addition, assay plates were equilibrated to room temperature for 30 minutes. Cells were then stimulated by addition of EC80 concentration of LPA (Cat #, 10010093) in assay buffer containing [1×HBSS calcium/magnesium (Corning, Cat #21-023-CM), 20 mM HEPES (Corning, Cat #25-060-Cl), and 0.1% BSA (Sigma, Cat #A8806)] using Molecular Devices FLIPR Tetra PLUS®. IC50 values were determined by Chemical and Biological Information System from ChemInnovation Software, Inc.
The compounds of this invention were tested for their activity to inhibit LPA1 as determined in an LPA1 functional antagonist assay as described herein.

T1 sequence (Q92633 whole entry, the tested form may be a part): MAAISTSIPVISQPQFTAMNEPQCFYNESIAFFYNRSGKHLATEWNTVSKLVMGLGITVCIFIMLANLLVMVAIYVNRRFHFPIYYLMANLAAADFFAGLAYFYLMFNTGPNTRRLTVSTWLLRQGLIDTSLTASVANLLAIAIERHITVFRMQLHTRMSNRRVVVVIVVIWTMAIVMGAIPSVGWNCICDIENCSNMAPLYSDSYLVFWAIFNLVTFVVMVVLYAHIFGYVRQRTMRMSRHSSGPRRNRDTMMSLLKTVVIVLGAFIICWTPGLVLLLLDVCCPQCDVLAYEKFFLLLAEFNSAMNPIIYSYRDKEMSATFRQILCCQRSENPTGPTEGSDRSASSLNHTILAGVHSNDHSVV

Turning to `Cc1nc(-c2nnn(C)c2COc2nccc(C3CCC3)n2)ccc1N1CCC(CC(=O)O)C1` (stereo not drawn) [Example 3, 2-(1-(6-(5-(((4-cyclobutylpyrimidin-2-yl)oxy)methyl)-1-methyl-1H-1,2,3-triazol-4-yl)-2-methylpyridin-3-yl)pyrrolidin-3-yl)acetic acid], the IC50 was below 100 nM.
As for `CCc1nc(-c2nnn(C)c2COc2nccc(C3CCC3)n2)ccc1N1CC[C@H](CC(=O)O)C1` [Example 4, (R)-2-(1-(6-(5-(((4-cyclobutylpyrimidin-2-yl)oxy)methyl)-1-methyl-1H-1,2,3-triazol-4-yl)-2-ethylpyridin-3-yl)pyrrolidin-3-yl)acetic acid], the IC50 was in the range of 100 to 500 nM.
With `Cc1nc(-c2nnn(C)c2COc2nccc(C3CCC3)n2)ccc1N1CC[C@H](CC(=O)O)C1` [Example 5, (R)-2-(1-(6-(5-(((4-cyclobutylpyrimidin-2-yl)oxy)methyl)-1-methyl-1H-1,2,3-triazol-4-yl)-2-methylpyridin-3-yl)pyrrolidin-3-yl)acetic acid], the IC50 was in the range of 100 to 500 nM.
`Cc1nc(-c2nnn(C)c2COc2nccc(C3CCC3)n2)ccc1N1CC[C@@H](CC(=O)O)C1` [Example 6, (S)-2-(1-(6-(5-(((4-cyclobutylpyrimidin-2-yl)oxy)methyl)-1-methyl-1H-1,2,3-triazol-4-yl)-2-methylpyridin-3-yl)pyrrolidin-3-yl)acetic acid]: the IC50 is below 100 nM.
With `Cc1nc(-c2nnn(C)c2COc2cc(-n3cccn3)ncn2)ccc1N1CC[C@H](CC(=O)O)C1` [Example 7, (R)-2-(1-(6-(5-(((6-(1H-pyrazol-1-yl)pyrimidin-4-yl)oxy)methyl)-1-methyl-1H-1,2,3-triazol-4-yl)-2-methylpyridin-3-yl)pyrrolidin-3-yl)acetic acid], the IC50 is 100 to 500 nM.
For `CCc1nc(-c2nnn(C)c2COc2nccc(C3CCC3)n2)ccc1N1CC[C@@H]([C@@H](C)C(=O)O)C1` [Example 8], the IC50 is below 100 nM.
Regarding `CCc1nc(-c2nnn(C)c2COc2nccc(C3CCC3)n2)ccc1N1CC[C@H]([C@@H](C)C(=O)O)C1` [Example 9], the IC50 was below 100 nM.
The result for `CCc1nc(-c2nnn(C)c2COc2nccc(C3CCC3)n2)ccc1N1CC[C@@H]([C@H](C)C(=O)O)C1` [Example 10] reads below 100 nM.
`CCc1nc(-c2nnn(C)c2COc2nccc(C3CCC3)n2)ccc1N1CC[C@H]([C@H](C)C(=O)O)C1` [Example 11]: the IC50 was below 100 nM.
`CCCc1ccc(=O)n(Cc2c(-c3ccc(N4CC[C@@H]([C@@H](C)C(=O)O)C4)c(CC)n3)nnn2C)c1` [Example 12, (R)-2-((S)-1-(2-ethyl-6-(1-methyl-5-((2-oxo-5-propylpyridin-1(2H)-yl)methyl)-1H-1,2,3-triazol-4-yl)pyridin-3-yl)pyrrolidin-3-yl)propanoic acid]: the IC50 lay within 500 to 5000 nM.
For the compound `CCCc1ccc(=O)n(Cc2c(-c3ccc(N4CC[C@@H]([C@H](C)C(=O)O)C4)c(CC)n3)nnn2C)c1` [Example 13, (S)-2-((S)-1-(2-ethyl-6-(1-methyl-5-((2-oxo-5-propylpyridin-1(2H)-yl)methyl)-1H-1,2,3-triazol-4-yl)pyridin-3-yl)pyrrolidin-3-yl)propanoic acid], the IC50 lay in the range of 100 to 500 nM.
`CCCc1ccc(=O)n(Cc2c(-c3ccc(N4CC[C@@H](C(C)(C)C(=O)O)C4)c(CC)n3)nnn2C)c1` [Example 14]: the IC50 was below 100 nM.
With `CCCc1ccc(=O)n(Cc2c(-c3ccc(N4CC[C@@H](C(C)(C)C(=O)O)C4)c(C)n3)nnn2C)c1` [Example 15, (S)-2-methyl-2-(1-(2-methyl-6-(1-methyl-5-((2-oxo-5-propylpyridin-1(2H)-yl)methyl)-1H-1,2,3-triazol-4-yl)pyridin-3-yl)pyrrolidin-3-yl)propanoic acid], the half-maximal inhibitory concentration (IC50) was below 100 nM.
To `CCCc1ccc(=O)n(Cc2c(-c3ccc(N4CC[C@H](C(C)(C)C(=O)O)C4)c(CC)n3)nnn2C)c1` [Example 16, (R)-2-(1-(2-ethyl-6-(1-methyl-5-((2-oxo-5-propylpyridin-1(2H)-yl)methyl)-1H-1,2,3-triazol-4-yl)pyridin-3-yl)pyrrolidin-3-yl)-2-methylpropanoic acid] belongs 500 to 5000 nM.
For `Cc1nc(-c2nnn(C)c2COc2nccc(C3CCC3)n2)ccc1C1CC(CC(=O)O)CCO1` (stereo not drawn) [Example 26, 2-(2-(6-(5-(((4-cyclobutylpyrimidin-2-yl)oxy)methyl)-1-methyl-11H-1,2,3-triazol-4-yl)-2-methylpyridin-3-yl)tetrahydro-2H-pyran-4-yl)acetic acid], the IC50 lay in the range of 100 to 500 nM.
Regarding `CCCc1ccc(=O)n(Cc2c(-c3ccc(C4CC(CC(=O)O)CCO4)c(C)n3)nnn2C)c1` (stereo not drawn) [Example 27, 2-[2-(2-methyl-6-{1-methyl-5-[(2-oxo-5-propyl-1,2-dihydropyridin-1-yl)methyl]-1H-1,2,3-triazol-4-yl}pyridin-3-yl)oxan-4-yl]acetic acid], the IC50 was in the range of 500 to 5000 nM.
On to `Cc1nc(-c2nnn(C)c2COc2nccc(C3CCC3)n2)ccc1C1COCC(CC(=O)O)C1` (stereo not drawn) [Example 28, 2-{5-[6-(5-{[(4-cyclobutylpyrimidin-2-yl)oxy]methyl}-1-methyl-1H-1,2,3-triazol-4-yl)-2-methylpyridin-3-yl]oxan-3-yl}acetic acid], for which the IC50 lay within 100 to 500 nM.
Take `CCCc1ccc(=O)n(Cc2c(-c3ccc(C4COCC(CC(=O)O)C4)c(C)n3)nnn2C)c1` (stereo not drawn) [Example 29]: the IC50 fell in the range of 500 to 5000 nM.
The result for `CCCN(C)C(=O)OCc1c(-c2ccc(C3CCOC(CC(=O)O)C3)c(CC)n2)nnn1C` (stereo not drawn) [Example 30, 2-(4-{2-ethyl-6-[1-methyl-5-({[methyl(propyl)carbamoyl]oxy}methyl)-1H-1,2,3-triazol-4-yl]pyridin-3-yl}oxan-2-yl)acetic acid] reads 500 to 5000 nM; that for `CCCc1ccc(=O)n(Cc2c(-c3ccc(C4CCOC(CC(=O)O)C4)c(CC)n3)nnn2C)c1` (stereo not drawn) [Example 31, 2-(4-(2-ethyl-6-(1-methyl-5-((2-oxo-5-propylpyridin-1(2H)-yl)methyl)-1H-1,2,3-triazol-4-yl)pyridin-3-yl)tetrahydro-2H-pyran-2-yl)acetic acid], 500 to 5000 nM; that for `CCc1nc(-c2nnn(C)c2COc2nccc(C3CCC3)n2)ccc1C1CCOC(CC(=O)O)C1` (stereo not drawn) [Example 32, 2-(4-(6-(5-(((4-cyclobutylpyrimidin-2-yl)oxy)methyl)-1-methyl-1H-1,2,3-triazol-4-yl)-2-ethylpyridin-3-yl)tetrahydro-2H-pyran-2-yl)acetic acid], below 100 nM.
Consider `CCc1nc(-c2nnn(C)c2COc2cc(-n3cccn3)ncn2)ccc1C1CCOC(CC(=O)O)C1` (stereo not drawn) [Example 33, 2-(4-(6-(5-(((6-(1H-pyrazol-1-yl)pyrimidin-4-yl)oxy)methyl)-1-methyl-1H-1,2,3-triazol-4-yl)-2-ethylpyridin-3-yl)tetrahydro-2H-pyran-2-yl)acetic acid], for which the IC50 fell in the range of 100 to 500 nM.
`CCCc1ccc(=O)n(Cc2c(-c3ccc(C4CCCC(CC(=O)O)C4)c(C)n3)nnn2C)c1` (stereo not drawn) [Example 38, 2-[3-(2-methyl-6-{1-methyl-5-[(2-oxo-5-propyl-1,2-dihydropyridin-1-yl)methyl]-1H-1,2,3-triazol-4-yl}pyridin-3-yl)cyclohexyl]acetic acid]: the IC50 was 100 to 500 nM.
With `Cc1nc(-c2nnn(C)c2COc2nccc(C3CCC3)n2)ccc1C1CCCC(CC(=O)O)C1` (stereo not drawn) [Example 39, 2-{3-[6-(5-{[(4-cyclobutylpyrimidin-2-yl)oxy]methyl}-1-methyl-1H-1,2,3-triazol-4-yl)-2-methylpyridin-3-yl]cyclohexyl}acetic acid], the IC50 is below 100 nM.
For `Cc1nc(-c2nnn(C)c2CN2CC(CC3CC3)N(C)C2=O)ccc1O[C@H]1CCC[C@H](C(=O)O)C1` (stereo partly drawn) [Example 42, (1S,3S)-3-((6-(5-((4-(cyclopropylmethyl)-3-methyl-2-oxoimidazolidin-1-yl)methyl)-1-methyl-1H-1,2,3-triazol-4-yl)-2-methylpyridin-3-yl)oxy)cyclohexane-1-carboxylic acid], the IC50 fell in the range of 100 to 500 nM.
For the compound `CCCc1ccc(=O)n(Cc2c(-c3ccc(O[C@H]4CCC[C@H](C(=O)O)C4)c(CC)n3)nnn2C)c1` [Example 43, (1S,3S)-3-((2-ethyl-6-(1-methyl-5-((2-oxo-5-propylpyridin-1(2H)-yl)methyl)-1H-1,2,3-triazol-4-yl)pyridin-3-yl)oxy)cyclohexanecarboxylic acid], the IC50 is below 100 nM.
As to `CCc1nc(-c2nnn(C)c2Cn2cc(CC3CC3)ccc2=O)ccc1O[C@H]1CCC[C@H](C(=O)O)C1` [Example 44, (1S,3S)-3-((6-(5-((5-(cyclopropylmethyl)-2-oxopyridin-1(2H)-yl)methyl)-1-methyl-1H-1,2,3-triazol-4-yl)-2-ethylpyridin-3-yl)oxy)cyclohexanecarboxylic acid], the IC50 is below 100 nM.
